From the supplement of paper PMC10307832

Tests used:
Assay in all cases: relative viability (nuclei count vs DMSO), 5 days (fraction); higher = more cells survive
Everolimus + Linsitinib = compound: CO[C@H]1C[C@@H]2CC[C@@H](C)[C@@](O)(O2)C(=O)C(=O)N2CCCC[C@H]2C(=O)O[C@H]([C@H](C)C[C@@H]2CC[C@@H](OCCO)[C@H](OC)C2)CC(=O)[C@H](C)/C=C(\C)[C@@H](O)[C@@H](OC)C(=O)[C@H](C)C[C@H](C)/C=C/C=C/C=C/1C [Everolimus] + C[C@]1(O)C[C@@H](c2nc(-c3ccc4ccc(-c5ccccc5)nc4c3)c3c(N)nccn32)C1 [Linsitinib] (partner 1 µM)
How it was run: (§1)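 Five library-drug doses in √10 steps were combined with a fixed anchor-drug dose, or a single drug was given alone, by pin tool to lung cancer cell lines in 1536-well plates the day after seeding. Nuclei were stained and counted after 5 days. Relative viability is the nuclei count in treated wells over that in vehicle wells, taken as the median of duplicate plates.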

Everolimus + Vorinostat = compound: CO[C@H]1C[C@@H]2CC[C@@H](C)[C@@](O)(O2)C(=O)C(=O)N2CCCC[C@H]2C(=O)O[C@H]([C@H](C)C[C@@H]2CC[C@@H](OCCO)[C@H](OC)C2)CC(=O)[C@H](C)/C=C(\C)[C@@H](O)[C@@H](OC)C(=O)[C@H](C)C[C@H](C)/C=C/C=C/C=C/1C [Everolimus] + O=C(CCCCCCC(=O)Nc1ccccc1)NO [Vorinostat] (partner 1 µM)
How it was run: as §1

Everolimus + Pemetrexed = compound: CO[C@H]1C[C@@H]2CC[C@@H](C)[C@@](O)(O2)C(=O)C(=O)N2CCCC[C@H]2C(=O)O[C@H]([C@H](C)C[C@@H]2CC[C@@H](OCCO)[C@H](OC)C2)CC(=O)[C@H](C)/C=C(\C)[C@@H](O)[C@@H](OC)C(=O)[C@H](C)C[C@H](C)/C=C/C=C/C=C/1C [Everolimus] + Nc1nc2[nH]cc(CCc3ccc(C(=O)N[C@@H](CCC(=O)O)C(=O)O)cc3)c2c(=O)[nH]1 [Pemetrexed] (partner 0.2 µM)
How it was run: as §1

Everolimus + Navitoclax = compound: CO[C@H]1C[C@@H]2CC[C@@H](C)[C@@](O)(O2)C(=O)C(=O)N2CCCC[C@H]2C(=O)O[C@H]([C@H](C)C[C@@H]2CC[C@@H](OCCO)[C@H](OC)C2)CC(=O)[C@H](C)/C=C(\C)[C@@H](O)[C@@H](OC)C(=O)[C@H](C)C[C@H](C)/C=C/C=C/C=C/1C [Everolimus] + CC1(C)CCC(c2ccc(Cl)cc2)=C(CN2CCN(c3ccc(C(=O)NS(=O)(=O)c4ccc(N[C@H](CCN5CCOCC5)CSc5ccccc5)c(S(=O)(=O)C(F)(F)F)c4)cc3)CC2)C1 [Navitoclax] (partner 0.5 µM)
How it was run: as §1

| Cell Line | relative viability (Everolimus + Linsitinib; first compound 0.01 µM) | relative viability (Everolimus + Linsitinib; first compound 0.03162 µM) | relative viability (Everolimus + Linsitinib; first compound 0.1 µM) | relative viability (Everolimus + Linsitinib; first compound 0.3162 µM) | relative viability (Everolimus + Linsitinib; first compound 1 µM) | relative viability (Everolimus + Vorinostat; first compound 0.01 µM) | relative viability (Everolimus + Vorinostat; first compound 0.03162 µM) | relative viability (Everolimus + Vorinostat; first compound 0.1 µM) | relative viability (Everolimus + Vorinostat; first compound 0.3162 µM) | relative viability (Everolimus + Vorinostat; first compound 1 µM) | relative viability (Everolimus + Pemetrexed; first compound 0.01 µM) | relative viability (Everolimus + Pemetrexed; first compound 0.03162 µM) | relative viability (Everolimus + Pemetrexed; first compound 0.1 µM) | relative viability (Everolimus + Pemetrexed; first compound 0.3162 µM) | relative viability (Everolimus + Pemetrexed; first compound 1 µM) | relative viability (Everolimus + Navitoclax; first compound 0.01 µM) | relative viability (Everolimus + Navitoclax; first compound 0.03162 µM) | relative viability (Everolimus + Navitoclax; first compound 0.1 µM) | relative viability (Everolimus + Navitoclax; first compound 0.3162 µM) | relative viability (Everolimus + Navitoclax; first compound 1 µM) |
| --- | --- | --- | --- | --- | --- | --- | --- | --- | --- | --- | --- | --- | --- | --- | --- | --- | --- | --- | --- | --- |
| 201T | 0.805 | 0.876 | 0.78 | 0.78 | 0.823 | 0.844 | 0.908 | 0.81 | 0.806 | 0.809 | 0.365 | 0.383 | 0.32 | 0.307 | 0.317 | 1 | 1.09 | 1.05 | 1.07 | 1.03 |
| A549 | 0.484 | 0.308 | 0.231 | 0.241 | 0.223 | – | – | – | – | – | – | – | – | – | – | 0.64 | 0.455 | 0.452 | 0.474 | 0.458 |
| A-427 | 0.854 | 0.772 | 0.823 | 0.675 | 0.834 | 0.781 | 0.817 | 0.751 | 0.829 | 0.843 | 0.757 | 0.856 | 0.799 | 0.788 | 0.891 | 0.622 | 0.404 | 0.409 | 0.388 | 0.461 |
| ABC-1 | 0.599 | 0.351 | 0.55 | 0.446 | 0.535 | 0.56 | – | 0.741 | – | 0.941 | – | – | – | – | – | – | – | – | – | – |
| BEN | 0.571 | 0.355 | 0.338 | 0.334 | 0.326 | 0.401 | 0.337 | 0.368 | 0.353 | 0.391 | 0.552 | 0.458 | 0.501 | 0.521 | 0.618 | 0.0532 | 0.0623 | 0.063 | 0.0598 | 0.0645 |
| CAL-12T | 0.452 | 0.56 | 0.447 | 0.616 | 0.562 | 0.267 | 0.29 | 0.237 | 0.321 | 0.318 | 0.572 | 0.58 | 0.664 | 0.653 | 0.627 | 0.438 | 0.452 | 0.35 | 0.423 | 0.498 |
| COR-L23 | 0.552 | 0.501 | 0.603 | 0.708 | 0.652 | 0.322 | 0.336 | 0.308 | 0.381 | 0.367 | 0.196 | 0.194 | 0.189 | 0.193 | 0.186 | 0.706 | 0.597 | 0.662 | 0.636 | 0.765 |
| COR-L 105 | 0.743 | 0.604 | 0.585 | 0.686 | 0.504 | 0.58 | 0.465 | 0.535 | 0.572 | 0.59 | 0.9 | 0.806 | 0.75 | 0.792 | 0.716 | 0.574 | 0.636 | 0.616 | 0.652 | 0.57 |
| Calu-6 | 0.647 | 0.707 | 0.663 | 0.762 | 0.778 | – | – | – | – | – | – | – | – | – | – | 0.774 | 0.714 | 0.779 | 0.7 | 0.532 |
| ChaGo-K-1 | – | – | – | – | – | 0.678 | 0.688 | 0.62 | 0.662 | 0.726 | 0.247 | 0.265 | 0.26 | 0.244 | 0.249 | 1.01 | 0.558 | 0.951 | 0.837 | 1.01 |
| EBC-1 | 0.263 | 0.218 | 0.306 | 0.205 | 0.298 | – | – | – | – | – | – | – | – | – | – | 0.211 | 0.217 | 0.153 | 0.22 | 0.222 |
| EKVX | 0.863 | 0.728 | 0.63 | 0.402 | 0.568 | 0.72 | 0.567 | 0.429 | 0.451 | 0.425 | – | 0.378 | 0.371 | 0.345 | 0.389 | 0.542 | 0.75 | 0.505 | 0.514 | 0.654 |
| EMC-BAC-2 | 0.587 | 0.542 | 0.532 | 0.517 | 0.501 | 0.278 | 0.267 | 0.299 | – | 0.292 | 0.469 | 0.491 | 0.445 | 0.45 | 0.491 | 0.9 | 0.806 | 0.619 | 0.736 | 0.61 |
| EPLC-272H | 1.15 | 0.786 | 0.64 | 0.619 | 0.657 | 0.512 | 0.306 | 0.289 | 0.336 | 0.305 | 0.343 | 0.317 | 0.397 | 0.313 | 0.315 | 0.996 | 0.697 | 0.598 | 0.602 | 0.673 |
| H3255 | 0.804 | 0.695 | 0.559 | 0.602 | 0.504 | 0.474 | 0.82 | 0.47 | 0.446 | 0.549 | 0.459 | 0.458 | 0.478 | 0.449 | 0.455 | 0.252 | 0.23 | 0.188 | 0.167 | 0.148 |
| HARA | 0.839 | 0.8 | 0.646 | 0.674 | 0.713 | 0.431 | 0.494 | 0.407 | 0.371 | 0.485 | 0.294 | 0.245 | 0.26 | 0.238 | 0.202 | 1.14 | 1.2 | 1.12 | 1.11 | 0.898 |
| HCC-15 | 0.787 | 0.777 | 0.692 | 0.739 | 0.653 | 0.937 | 0.862 | 0.767 | 0.753 | 0.77 | 0.222 | 0.273 | 0.23 | 0.231 | 0.222 | 0.691 | 0.629 | 0.512 | 0.637 | 0.512 |
